Among the data in PubChem BioAssay AID248 (DTP/NCI, 2004) are T/C values, retold here.

Several values for one entry are separate records, joined by “and”; a condition that tells them apart may be missing. Equal values may be shown once. Toxic doses and inconclusive results are not listed.

The test concerns L1210 leukemia ip in BDF1 mice, survival T/C. The test can be described thus: NCI In Vivo Anticancer Drug Screen. Data for tumor model L1210 Leukemia (intraperitoneal) in B6D2F1 (BDF1) mice. As to conditions: endpoint: mean survival time, higher = longer survival. The method in brief: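 In this screen, tumor-bearing mice given compound are compared to those given vehicle, and their survival values are reported as a treated-to-control quotient.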

Setting [1] is: dose: 100.0 mg/kg/injection, schedule: Q04DX003 (ip), vehicle: saline with Tween-80.
[2] abbreviates: dose: 200.0 mg/kg/injection, schedule: Q04DX003 (ip), vehicle: saline with Tween-80.
Where [3] appears, read: dose: 400.0 mg/kg/injection, schedule: Q04DX003 (ip), vehicle: saline with Tween-80.
Setting [4] is: dose: 100.0 mg/kg/injection, schedule: Q04DX002 (ip), vehicle: Klucel (hydroxypropylcellulose) (HPC).
The mark [5] stands for this setting: dose: 200.0 mg/kg/injection, schedule: Q04DX002 (ip), vehicle: Klucel (hydroxypropylcellulose) (HPC).
The mark [6] stands for this setting: dose: 400.0 mg/kg/injection, schedule: Q04DX002 (ip), vehicle: Klucel (hydroxypropylcellulose) (HPC).
Setting [7] is: dose: 100.0 mg/kg/injection, schedule: Q01DX009 (ip), vehicle: saline with Tween-80.
Where [8] appears, read: dose: 100.0 mg/kg/injection, schedule: Q04DX002 (ip), vehicle: saline with Tween-80.
The mark [9] stands for this setting: dose: 200.0 mg/kg/injection, schedule: Q01DX009 (ip), vehicle: saline with Tween-80.
Where [10] appears, read: dose: 200.0 mg/kg/injection, schedule: Q04DX002 (ip), vehicle: saline with Tween-80.
[11] abbreviates: dose: 400.0 mg/kg/injection, schedule: Q01DX009 (ip), vehicle: saline with Tween-80.
[12] abbreviates: dose: 400.0 mg/kg/injection, schedule: Q04DX002 (ip), vehicle: saline with Tween-80.
Where [13] appears, read: dose: 100.0 mg/kg/injection, schedule: Q04DX003 (ip), vehicle: Klucel (hydroxypropylcellulose) (HPC).
The mark [14] stands for this setting: dose: 200.0 mg/kg/injection, schedule: Q04DX003 (ip), vehicle: Klucel (hydroxypropylcellulose) (HPC).
[15] abbreviates: dose: 400.0 mg/kg/injection, schedule: Q04DX003 (ip), vehicle: Klucel (hydroxypropylcellulose) (HPC).
The mark [16] stands for this setting: dose: 50.0 mg/kg/injection, schedule: Q01DX009 (ip), vehicle: Klucel (hydroxypropylcellulose) (HPC).
Where [17] appears, read: dose: 100.0 mg/kg/injection, schedule: Q01DX009 (ip), vehicle: Klucel (hydroxypropylcellulose) (HPC).
The mark [18] stands for this setting: dose: 200.0 mg/kg/injection, schedule: Q01DX009 (ip), vehicle: Klucel (hydroxypropylcellulose) (HPC).
Setting [19] is: dose: 100.0 mg/kg/injection, schedule: Q04DX003 (ip), vehicle: saline.
Where [20] appears, read: dose: 200.0 mg/kg/injection, schedule: Q04DX003 (ip), vehicle: saline.
The mark [21] stands for this setting: dose: 400.0 mg/kg/injection, schedule: Q04DX003 (ip), vehicle: saline.

On to `CC1(C)C2CC=C(N3CCCCC3)C1C2` (configuration not stated), for which the T/C under setting [1] is 96 % of control, the T/C under setting [2] was 96 % of control and the T/C under setting [3] is 98 % of control.

Take `C=C(C)C(=O)Oc1ccccc1-c1ccccc1`: the T/C was 100 % of control under setting [4], 96 % of control under setting [5] and 92 % of control under setting [6].

In the case of `Cc1cc(C)cc(OCCO)c1`, the T/C under setting [4] is 97 % of control, the T/C under setting [5] is 102 % of control and the T/C under setting [6] was 91 % of control.

As to `COc1cccc(C(O)c2cnc(C)n2Cc2ccccc2)c1` (configuration not stated), the T/C was 94 % of control (dose: 100.0 mg/kg/injection, schedule: Q01DX001 (ip), vehicle: saline with Tween-80); 93 % of control and 107 % of control under setting [7]; 97 % of control and 100 % of control under setting [8]; 101 % of control under setting [1]; 100 % of control (dose: 200.0 mg/kg/injection, schedule: Q01DX001 (ip), vehicle: saline with Tween-80); 98 % of control and 99 % of control under setting [9]. Also, the T/C under setting [10] is 102 % of control and 107 % of control; the T/C under setting [2] is 93 % of control; the T/C (dose: 400.0 mg/kg/injection, schedule: Q01DX001 (ip), vehicle: saline with Tween-80) is 103 % of control; the T/C under setting [11] is 98 % of control and 108 % of control; the T/C under setting [12] was 105 % of control and 88 % of control; the T/C under setting [3] is 98 % of control.

As to `COc1cc([N+](=O)[O-])ccc1-c1c(C(=O)O)cccc1[N+](=O)[O-]`, the T/C under setting [13] was 101 % of control, the T/C under setting [14] was 95 % of control and the T/C under setting [15] is 90 % of control.

Turning to `CC(=O)C(C(C)=O)c1ccccc1.CC(=O)C(C(C)=O)c1ccccc1.[Ni]`, the T/C by setting is: (dose: 6.0 mg/kg/injection, schedule: Q01DX009 (ip), vehicle: saline) 94 % of control; (dose: 12.0 mg/kg/injection, schedule: Q01DX009 (ip), vehicle: saline) 94 % of control; (dose: 25.0 mg/kg/injection, schedule: Q01DX009 (ip), vehicle: saline) 102 % of control.

Take `COc1ccc(OC(=O)Nc2cc([N+](=O)[O-])ccc2OC)cc1`: the T/C by setting is: (dose: 25.0 mg/kg/injection, schedule: Q01DX009 (ip), vehicle: Klucel (hydroxypropylcellulose) (HPC)) 89 % of control; under setting [16], 96 % of control; under setting [17], 88 % of control; under setting [18], 88 % of control.

As to `CNC/C(Cl)=N/S(=O)(=O)c1ccc(C)cc1`, the T/C was 106 % of control (dose: 12.5 mg/kg/injection, schedule: Q04DX002 (ip), vehicle: other); 98 % of control (dose: 25.0 mg/kg/injection, schedule: Q04DX002 (ip), vehicle: other); 95 % of control (dose: 50.0 mg/kg/injection, schedule: Q04DX002 (ip), vehicle: other); 96 % of control (dose: 50.0 mg/kg/injection, schedule: Q04DX002 (ip), vehicle: saline with Tween-80); 99 % of control under setting [8]; 96 % of control under setting [10]. In addition, the T/C under setting [12] is 108 % of control.

For `CCC(C(C)N1CC(=O)NC(=O)C1)N1CC(=O)NC(=O)C1` (configuration not stated), the T/C is 154 % of control (dose: 0.5 mg/kg/injection, schedule: Q01DX009 (ip), vehicle: Klucel (hydroxypropylcellulose) (HPC)); 120 % of control (dose: 1.0 mg/kg/injection, schedule: Q04DX003 (ip), vehicle: Klucel (hydroxypropylcellulose) (HPC)); 102 % of control (dose: 2.0 mg/kg/injection, schedule: Q01DX009 (ip), vehicle: Klucel (hydroxypropylcellulose) (HPC)); 123 % of control (dose: 2.0 mg/kg/injection, schedule: Q04DX003 (oral), vehicle: Klucel (hydroxypropylcellulose) (HPC)); 91 % of control (dose: 4.0 mg/kg/injection, schedule: Q01DX009 (ip), vehicle: Klucel (hydroxypropylcellulose) (HPC)); 203 % of control (dose: 4.0 mg/kg/injection, schedule: Q04DX003 (ip), vehicle: Klucel (hydroxypropylcellulose) (HPC)). For the same molecule, the T/C (dose: 8.0 mg/kg/injection, schedule: Q04DX003 (ip), vehicle: Klucel (hydroxypropylcellulose) (HPC)) was 219 % of control; the T/C (dose: 8.0 mg/kg/injection, schedule: Q04DX003 (oral), vehicle: Klucel (hydroxypropylcellulose) (HPC)) was 161 % of control; the T/C (dose: 16.0 mg/kg/injection, schedule: Q04DX003 (ip), vehicle: Klucel (hydroxypropylcellulose) (HPC)) was 96 % of control; the T/C (dose: 32.0 mg/kg/injection, schedule: Q04DX003 (ip), vehicle: Klucel (hydroxypropylcellulose) (HPC)) was 119 % of control; the T/C (dose: 64.0 mg/kg/injection, schedule: Q04DX003 (oral), vehicle: Klucel (hydroxypropylcellulose) (HPC)) was 93 % of control.

For the molecule `CC(=O)CC(=O)Nc1ccc(Cc2ccc(Br)cc2)cc1`, the T/C reads like this: (dose: 100.0 mg/kg/injection, schedule: Q01DX001 (ip), vehicle: saline) 96 % of control; (dose: 200.0 mg/kg/injection, schedule: Q01DX001 (ip), vehicle: saline) 95 % of control; (dose: 400.0 mg/kg/injection, schedule: Q01DX001 (ip), vehicle: saline) 91 % of control.

As for `CC(=N/N=C(N)N)/C(C)=N/N=C(N)N`, the T/C is, setting by setting: (dose: 15.0 mg/kg/injection, schedule: Q01DX Z (ip), vehicle: saline) 98 % of control; (dose: 30.0 mg/kg/injection, schedule: Q01DX Z (ip), vehicle: saline) 97 % of control; (dose: 60.0 mg/kg/injection, schedule: Q01DX005 (oral), vehicle: saline) 96 % of control; (dose: 60.0 mg/kg/injection, schedule: Q01DX Z (ip), vehicle: saline) 108 % of control; (dose: 120.0 mg/kg/injection, schedule: Q01DX Z (ip), vehicle: saline) 98 % of control.

Take `CC1(C)OC2C(N)OC(CO)C2O1` (configuration not stated): the T/C under setting [19] is 95 % of control, the T/C under setting [20] was 110 % of control and the T/C under setting [21] was 104 % of control.

As for `COc1ccc(/C=C(/C)[N+](=O)[O-])cc1`, the T/C was 104 % of control (dose: 50.0 mg/kg/injection, schedule: Q01DX001 (ip), vehicle: Klucel (hydroxypropylcellulose) (HPC)); 97 % of control (dose: 100.0 mg/kg/injection, schedule: Q01DX001 (ip), vehicle: Klucel (hydroxypropylcellulose) (HPC)); 95 % of control and 90 % of control (dose: 200.0 mg/kg/injection, schedule: Q01DX001 (ip), vehicle: Klucel (hydroxypropylcellulose) (HPC)); 100 % of control (dose: 300.0 mg/kg/injection, schedule: Q01DX001 (ip), vehicle: Klucel (hydroxypropylcellulose) (HPC)).

With `O=c1[nH]c(=O)c2[nH]c(N=Nc3ccc(S(=O)(=O)N(CCCl)CCCl)cc3)nc2[nH]1`, the T/C runs as follows: under setting [16], 97 % of control; under setting [17], 92 % of control; under setting [18], 94 % of control.

Regarding `Cc1ccc(NS(=O)(=O)c2ccccc2)nc1`, the T/C under setting [7] was 96 % of control; the T/C under setting [1] was 99 % of control; the T/C under setting [9] is 98 % of control; the T/C under setting [2] was 93 % of control; the T/C under setting [11] is 98 % of control; the T/C under setting [3] was 96 % of control.

Turning to `CCOC(=O)Cn1ccc(=O)[nH]c1=O`, the T/C reads like this: under setting [19], 98 % of control; under setting [20], 96 % of control; under setting [21], 102 % of control.

Regarding `O=S(=O)(Nc1ccc2ccccc2c1)c1cccc2cccnc12`, the T/C is 98 % of control under setting [13], 93 % of control under setting [14] and 95 % of control under setting [15].

Consider `CN(C)OC(=O)Nc1cccc2ccccc12`, for which the T/C runs as follows: (dose: 100.0 mg/kg/injection, schedule: Q04DX002 (ip), vehicle: DMSO) 96 % of control; (dose: 200.0 mg/kg/injection, schedule: Q04DX002 (ip), vehicle: DMSO) 108 % of control; (dose: 400.0 mg/kg/injection, schedule: Q04DX002 (ip), vehicle: DMSO) 101 % of control.
